For data set [1], the system named is cortical primary neurons (from C57BL6/J mice). The data set is described as follows: Caspase-3 activity (neuronal apoptosis) after excitotoxic NMDA stimulus. Format: cell-based. The note with it: 100 μM NMDA 10 min, then 24 h with compound 0.1, 1, 5 μM (FIG. 6). How it is done:
For NMDA receptors activation, neurons at 8 days in vitro were incubated with 100 μM NMDA for 10 minutes. Neurons were then washed and further incubated for 24 hours in culture medium with DMSO only (DMSO empty bar), DMSO and NMDA (DMSO filled bar) and with increasing quantities of GKK1032C, GKK1032, Pyrrocidine B, CL0661, CL0665, CL0667 and CL0670. Concentrations of 0.1 μM, 1 μM, 5 μM. *: pvalue <0.05 vs. DMSO+NMDA (student's test).
Experiments were performed in […] cortical primary neurons, obtained as was previously described (Herrero-Mendez A. et al., Nat. Cell. Biol. 11:747-752, 2009). After 7 or 8 days in B27-MAO culture, neurons (from C57BL6/J mice) were incubated in the presence of N-methyl-D-aspartate (NMDA, a H2O2 production promoter; 100 μM) for 10 minutes, followed by a PBS washing step and submitted to a 24-hour B27 incubation step in the absence (DMSO) or presence of increasing amounts of GKK1032C, GKK1032, Pyrrocidine B, Pyrrocidine A, CL0661, CL0665, CL0667 and CL0670 (0.1 μM, 1 μM and 5 μM). B27-MAO stands for Neurobasal medium, supplemented with B27 supplement in the absence of antioxidants (minus antioxidants, MAO).
Neuronal apoptosis was determined by measuring caspase-3 activity (Veas-Perez de Tudela et al. Sci Rep 5:18180; doi:10.1038/srep18180 (2015).
The data are presented as the mean values±standard deviation of the mean from n=3.

Data set [2] has as its system C57BL6/J male mice. Nature of the data set: Open field test in 3-nitropropionic acid chemical model of Huntington's disease. It counts as in vivo. The note with it: mice injected with GKK1032C and CL0670, once-daily 150 mg/kg (FIG. 16). As to the method: GKK1032C and CL0670 injections were performed at day 1, day 2 and day 3. 3-nitropropionic acid injections were performed at days 1, 1.5, 2, 2.5, 3 and 3.5. The shown data points were obtained 4 hours after the injections. p-value<0.05 vs. control (student's test).
A chemical model of Huntington's disease was conducted to evaluate the capacity of compound I and CL0670 in protecting neurons. This is achieved by intraperitoneal injection of 3-nitropropionic acid which induces neuronal oxidative stress by inhibiting the succinate dehydrogenase enzyme.
8-weeks old C57BL6/J male mice were divided into 4 groups.
Mice in group I (4 mice) were injected with GKK1032C and CL0670 (once-daily dose of 150 mg/kg for 3 days).
Mice in group II (5 mice) were injected with GKK1032C and CL0670 (once-daily dose of 150 mg/kg for 3 days) and with 3-nitropropionic acid (twice daily dose of 50 mg/kg for 3 days). In the case of group II, 3-nitropropionic acid was injected two hours and twelve hours after injection with GKK1032C and CL0670.
Mice in group III (5 mice) were injected with 3-nitropropionic acid (twice daily dose of 50 mg/kg for 3 days).
Mice in group IV (6 mice) were injected with vehicle only.

The subject of data set [3] is C57BL6/J male mice. The data set is described as follows: Rotarod test after Middle Cerebral Artery occlusion (stroke model). It counts as in vivo. The settings on record: GKK1032C and CL0670 10 mg/kg intravenously (jugular vein) after 30 min occlusion; rotarod 24 hours after reanimation; untreated stroke impairment ˜75%. An excerpt:
Middle Cerebral Artery occlusion involves temporarily or permanently restricting MCA blood flow to the cortex and striatum. The cerebral ischemic model of stroke is commonly used to assess ischemic injury in the brain. Occlusion of the middle cerebral artery (MCA) leads to a reduction of cerebral blood flow in both the striatum and the cortex. It is a highly reproducible model that results in brain damages similar to those occurring in human stroke.
Compounds GKK1032C and CL0670 were administered intravenously at a dose of 10 mg/kg. 11-week old C57BL6/J male mice were divided into 3 groups of 7 mice each: mice submitted to Middle Cerebral Artery occlusion (ischemia), mice submitted to Middle Cerebral Artery occlusion and administration of GKK1032C and CL0670.
All mice were firstly trained in the rotarod for 3 consecutive days. After this period, the mice were put to sleep with sevoflurane and submitted to surgery. Occlusion was performed by maintain the surgical filament occluding the middle cerebral artery for 30 minutes. Once removed, GKK1032C and CL0670 were injected at the jugular vein. 24 hours after reanimation, the animals were submitted to the rotarod test.
Background: The rotarod test checks motor coordination on a turning rod.

For data set [4], the system named is rat cortical primary neurons. Nature of the data set: H2O2 formation in cortical primary neurons treated with L-BSO and rotenone (Amplex Red). Format: cell-based. How it is done: The data are presented as the mean values±[…] of the mean (SEM) from n=6 (i.e., 6 independent wells measured independently).
After this period, cells were again washed and determined the rate of H2O2 production during the next 2 h.

Data set [5] in a line: Pharmacokinetics in plasma and brain after intraperitoneal administration. Format: in vivo, female C57BL/6 mice. The settings on record: 150 mg/Kg intraperitoneal. How it is done: FIG. 10 represents the concentration of Compound I in plasma and brain of female C57BL/6 mice collected at t=0 min, 5 min, 15 min, 30 min, 1 hour, 4 hours, 10 hours, 24 hours and 48 hours.
The Maximum Tolerated Dose (MTD) and Pharmacokinetics (PK) of compound I were determined after intraperitoneal administration to female C57BL/6 (˜25 g) 9 weeks old mice. The injection comprised a 150 mg/Kg dose of compound I in Creomophor-EtOH-H2O (10:5:85). The concentrations of GKK1032C in plasma and brain were determined at different times per duplicate (pre-dose, 5 min, 15 min, 30 min, 1 h, 4 h, 10 h, 24 h and 48 h) using a previously validated analytical method. […] The highest concentration in the brain is 850 ng/mL at 4 hours after injection and progressively declined until reaching the control levels at 24 hours post-administration.

Structures are written as SMILES.

Consider `C=CC1(C)C=C(C)C2C3C(Oc4ccc(cc4)CC4C(=O)NC(O)C4C(=O)C31)C1C(C)CC(C)CC21C` (stereo not shown) [CL0670], for which, in data set [1], the “neuronal apoptosis (caspase-3 activity) after NMDA” value is “effective in protecting neuron cells against apoptosis”. Moreover, in data set [2], the “number of line crossings (open field), 3-nitropropionic acid model” value is reported as “increased” and the “time spent in central square of the arena (open field), 3-nitropropionic acid model” value was “increased”. Also, the “recovery of motor coordination (rotarod) of mice with stroke” value in data set [3] was approximately 17%.
Regarding `C=CC1(C)C=C(C)C2C3C(Oc4ccc(cc4)CC4(O)NC(=O)C5(OC45)C(=O)C31)C1C(C)CC(C)CC21C` (stereo not shown) [Compound I], in data set [1], the “neuronal apoptosis (caspase-3 activity) after NMDA” value is given as “effective in protecting neuron cells against apoptosis”. Also, the “rate of H2O2 formation by the neurons” value in data set [4] (L-BSO + rotenone 6 h, washed, then compound added at 1 and 5 μg/ml, H2O2 release recorded 2 h (FIG. 1)) is “dose-dependently decreased”. Moreover, the “rate of H2O2 formation” value in data set [4] (compound 1 μg/ml together with L-BSO and rotenone for 6 h, washed, recorded 2 h (FIG. 2)) is “significantly impaired”. In data set [4] (pre-treatment 5 μg/ml for 72 h, no L-BSO/rotenone (FIG. 3)), the “H2O2 formation in untreated neurons” value was “prevented”. In addition, in data set [4] (pre-treatment 5 μg/ml for 72 h, washed, then L-BSO and rotenone 6 h, recorded 2 h (FIG. 3)), the “L-BSO+rotenone-induced H2O2 formation” value is “very significantly prevented”. Also, in data set [2], the “number of line crossings (open field), 3-nitropropionic acid model” value was “increased” and the “time spent in central square of the arena (open field), 3-nitropropionic acid model” value is “increased”. In data set [3], the “recovery of motor coordination (rotarod) of mice with stroke” value is approximately 17%. The “highest concentration in the plasma” value in data set [5] (Creomophor-EtOH-H2O (10:5:85), mice (FIG. 10)) turned out to be 30000 ng/mL. In data set [5] (mice), the “crossing of the blood-brain barrier” value is listed as “successfully crosses the blood-brain barrier”, the “duration of high levels in the brain” value is “about 18 hours”, the “highest concentration in the brain” value is reported as 850 ng/mL and the “time at which brain concentration reaches the control levels post-administration” value is 24 h. In data set [5] (mice), the “time of highest concentration in the brain after injection” value amounted to 4 h and the “time of highest concentration in the plasma after injection” value amounted to 4 h.

The values are drawn from patent publication US20220177484A1, “MACROCYCLES WITH ANTIOXIDANT AND NEUROPROTECTIVE ACTIVITIES” (INSTITUTO BIOMAR, S.A, priority 2019, published 2022).
